Data on 1 compound can be found in patent US12447193B2, “Compositions and methods for prevention and treatment of infections” (The University of Memphis Research Foundation, priority 2019, dated 2025).

In the assay the test system is S. aureus (UAMS-1). Briefly: Osteomyelitis model in New Zealand White rabbits. Particulars: rabbit radius defect, 3 weeks, H&E. It is filed as in vivo. The method, then: This animal model was approved by the IACUC at the University of Arkansas Medical Sciences with all appropriate measures taken to minimize pain and discomfort. This in vivo model is an adaptation of the work by Smeltzer et al J Orthop Res, 1997 15(3):414-21. Female New Zealand White rabbits weighing 2-3 kg were divided into 5 groups (n=6/group) including the following: no treatment control, a hollow PMMA (Orthoset, MicroPort Memphis, TN) cylinder with amikacin and vancomycin (approximately 15 mg/implant), a vancomycin sprinkle of 10 mg, the Ch-PEG paste, and the ChMPEG paste. Rabbits were anesthetized with 1-2 cc of a xylazine/ketamine mixture intramuscularly for a dose range of […] xylazine and 30-40 mg/kg ketamine. Rabbits were maintained on isoflurane administered by nose cone to produce surgical anesthesia and monitored by a veterinary technician. The right forelimb of each rabbit was shaved and prepped using a betadine scrub and rinsed with 70% ethanol. An incision was made on the anterior surface of the right forelimb through the epidermis, musculature, and fascia until the radius was exposed. A 1 cm mid-radial segment was excised from the right radial bone using a miniature saw blade (Exakt, Oklahoma City, OK). […]

For `CN[C@H](CC(C)C)C(=O)N[C@H]1C(=O)N[C@@H](CC(N)=O)C(=O)N[C@H]2C(=O)N[C@H]3C(=O)N[C@H](C(=O)N[C@H](C(=O)O)c4cc(O)cc(O)c4-c4cc3ccc4O)[C@H](O)c3ccc(c(Cl)c3)Oc3cc2cc(c3O[C@@H]2O[C@H](CO)[C@@H](O)[C@H](O)[C@H]2O[C@H]2C[C@](C)(N)[C@H](O)[C@H](C)O2)Oc2ccc(cc2Cl)[C@H]1O` [vancomycin powder, vancomycin], the “inflammation in histological sections of bone in the defect” value was “areas of high inflammatory cell presence” and the “tissue growth / fill in the defect (histology)” value is reported as “tissue fill within the defect”.
